Data: patent US11117930B2, “Peptide inhibitors of transcription factor aggregation” (ADRX, INC., priority 2017, dated 2021)
Where two headings read alike, the source gives them in different places. Non-standard residues stand in square brackets, D forms with d. Residues, ends and D or L forms follow the SMILES beside them. No end group written: not given here.

Experiments:
[1] = target: p63 [RPILIIVTLE—SEQ ID NO: 226] (Homo sapiens, UniProt Q9H3D4); test: Thioflavin T aggregation assay, p63 amyloidogenic region; assay type: biochemical; parameters: dose or concentration left out as unconfirmed; conditions: inhibitors added in solution; FIG. 2(a)
Text: (§1) FIGS. 1(a) and 1(b) show the aggregation of p63 and p73 amyloidogenic regions, respectively. The aggregation of the p63 and p73 sequences are monitored via Thioflavin T assay: an increase in Thioflavin T fluorescence is detected over time due to the formation of increasing amounts of amyloid to which the dye can specifically bind.
(§2) FIGS. 2(a) and 2(b) show the in vitro inhibition of p63 and p73 aggregation by several inhibitors. The aggregation is monitored via Thioflavin T assay. […] The baseline of no inhibitor is the line with squares.
The peptides are tested for p63 binding and p73 binding in an in vitro Thiofiavin T aggregation assay. […] The addition of the 50 μM solutions of p63 and p73 peptides to the reaction Buffer described in Example 3, forms amyloid (FIG. 1(a) and FIG. 1(b)). An increase in Thioflavin T fluorescence is detected over time due to the formation of increasing amounts of amyloid to which the dye can specifically bind. […] For the Nat1 Stock Solution, Nat1 (LTIITLE (SEQ ID NO: 225), >95% Pure, TFA salt) is dissolved at 8 mM in 25 mM NaOH solution and kept at −80° C. Prior to the assay, it is diluted to 1 mM in H2O. […] ThT fluorescence is monitored at room temperature every minute for 2 hours with excitation and emission wavelengths of 440 and 485 nm, respectively. […]

[2] = target: p73 [RPILIIITLE—SEQ ID NO: 227] (Homo sapiens, UniProt O15350); test: Thioflavin T aggregation assay, p73 amyloidogenic region; assay type: biochemical; parameters: dose or concentration left out as unconfirmed; conditions: inhibitors added in solution; FIG. 2(b)
Text: as §1, §2
An increase in Thioflavin T fluorescence is detected over time due to the formation of increasing amounts of amyloid to which the dye can specifically bind. […] For the Nat1 Stock Solution, Nat1 (LTIITLE (SEQ ID NO: 225), >95% Pure, TFA salt) is dissolved at 8 mM in 25 mM NaOH solution and kept at −80° C. Prior to the assay, it is diluted to 1 mM in H2O. The 2× Reaction Buffer is prepared with 200 mM Sodium Phosphate, pH6.0, 500 mM Sodium Chloride and 200 μM Thioflavin T (ThT). 100 μL of 2× reaction buffer and 80 μL of H2O are added to each well in black, clear-bottomed 96-well plate. Inhibitor peptides are dissolved in H2O to appropriate concentrations to produce 6-points dose response curves. […] ThT fluorescence is monitored at room temperature every minute for 2 hours with excitation and emission wavelengths of 440 and 485 nm, respectively. […]

[3] = Protein binding in human serum; assay type: in vitro ADME; conditions: CPP linked peptides
Stability in human serum = assay type: in vitro ADME; conditions: CPP linked peptides, read-out: Stability in Human Serum (t1/2)
Detroit-562 = assay type: cell-based; conditions: 24 h
Description: (§3) To render the inhibitors cell permeable, the peptides are fused to either a nine-residue poly L-Arg tag or a nine-residue poly D-Arg tag, through one of several three-residue linkers, either L-RPI, D-RPI, or D-GGG. Cancer cell lines, e.g. OVCAR-3, and Detroit 562 are treated with the peptide conjugates for 24 hours by the following method. OVCAR3 and Detroit-562 cells are grown in ATCC recommended growth media. The peptides were made in a 4 mM stock. Cells are plated in 96-well flat bottom clear plates at 7000 cells/well. After 24 hours, compounds are serially diluted in one-third [starting at 33 μM] or one-half [starting at 30 μM] dilutions in PrEGM media (Lonza). Growth media was removed from the wells and compound in PrEGM was added to 100 ul final volume. 24 hours post-compound addition cell metabolism was measured by addition of 20 μl MTS solution (Promega, cell-titer 96 aqueous). Absorbance was read at 490 nm following a 2 hour incubation and data was processed in Prism Graphpad to generate EC50 values.

OVCAR3 = assay type: cell-based; conditions: 24 h
Description: as §3

Row | Compound | in vitro inhibition of p63 aggregation [1] | in vitro inhibition of p73 aggregation [2] | fraction unbound [3] | half-life (Stability in human serum; cells given in hr) | EC50 (Detroit-562) | EC50 (OVCAR3) | half-life (Stability in human serum)
1 | N=C(N)NCCC[C@@H](N)C(=O)N[C@H](Cc1ccccc1)C(=O)N[C@H](Cc1ccc(O)cc1)C(=O)N[C@H](Cc1ccc(O)cc1)C(=O)N[C@H](Cc1c[nH]cn1)C(=O)N[C@H](CCCNC(=N)N)C(=O)N[C@H](CCCNC(=N)N)C(=O)O [rfyyhrr] (H-[dR][dF][dY][dY][dH][dR][dR]-OH; N-terminus and C-terminus assumed) | delay the aggregation onset and lower the total amount of aggregates present | delay the aggregation onset and lower the total amount of aggregates present | – | – | – | – | –
2 | CC[C@@H](C)[C@@H](NC(=O)[C@H]1CCCN1C(=O)[C@@H](CCCNC(=N)N)NC(=O)[C@@H](CCCNC(=N)N)NC(=O)[C@@H](CCCNC(=N)N)NC(=O)[C@@H](CCCNC(=N)N)NC(=O)[C@@H](CCCNC(=N)N)NC(=O)[C@@H](CCCNC(=N)N)NC(=O)[C@@H](CCCNC(=N)N)NC(=O)[C@@H](CCCNC(=N)N)NC(=O)[C@@H](CCCNC(=N)N)NC(=O)[C@H](N)CCCNC(=N)N)C(=O)N[C@H](CCCCN)C(=O)N[C@H](Cc1ccccc1)C(=O)N[C@H](CCCNC(=N)N)C(=O)N[C@H](Cc1ccccc1)C(=O)N[C@H](Cc1ccc(O)cc1)C(=O)N[C@H](Cc1c[nH]cn1)C(=O)N[C@H](CCCNC(=N)N)C(=O)O [rrrrrrrrrrpikfrfyhr] (H-[dR][dR][dR][dR][dR][dR][dR][dR][dR][dR][dP][dI][dK][dF][dR][dF][dY][dH][dR]-OH) | – | – | 0.14 | > 24 h | 5 µM | 4 µM | –
3 | CC[C@@H](C)[C@@H](NC(=O)[C@H]1CCCN1C(=O)[C@@H](CCCNC(=N)N)NC(=O)[C@@H](CCCNC(=N)N)NC(=O)[C@@H](CCCNC(=N)N)NC(=O)[C@@H](CCCNC(=N)N)NC(=O)[C@@H](CCCNC(=N)N)NC(=O)[C@@H](CCCNC(=N)N)NC(=O)[C@@H](CCCNC(=N)N)NC(=O)[C@@H](CCCNC(=N)N)NC(=O)[C@@H](CCCNC(=N)N)NC(=O)[C@H](N)CCCNC(=N)N)C(=O)N[C@H](CCCCN)C(=O)N[C@H](Cc1c[nH]c2ccccc12)C(=O)N[C@H](CCCNC(=N)N)C(=O)N[C@H](Cc1c[nH]c2ccccc12)C(=O)N[C@H](Cc1ccc(O)cc1)C(=O)N[C@H](CCCNC(=N)N)C(=O)N[C@H](CCCNC(=N)N)C(=O)O [rrrrrrrrrrpikwrwyrr] (H-[dR][dR][dR][dR][dR][dR][dR][dR][dR][dR][dP][dI][dK][dW][dR][dW][dY][dR][dR]-OH; N-terminus and C-terminus assumed) | – | – | 0.06 | > 24 h | 5 µM | 4 µM | –
4 | CC[C@@H](C)[C@@H](NC(=O)[C@H]1CCCN1C(=O)[C@@H](CCCNC(=N)N)NC(=O)[C@@H](CCCNC(=N)N)NC(=O)[C@@H](CCCNC(=N)N)NC(=O)[C@@H](CCCNC(=N)N)NC(=O)[C@@H](CCCNC(=N)N)NC(=O)[C@@H](CCCNC(=N)N)NC(=O)[C@@H](CCCNC(=N)N)NC(=O)[C@@H](CCCNC(=N)N)NC(=O)[C@@H](CCCNC(=N)N)NC(=O)[C@H](N)CCCNC(=N)N)C(=O)N[C@H](CCCNC(=N)N)C(=O)N[C@@H](C(=O)N[C@H](Cc1c[nH]cn1)C(=O)N[C@H](Cc1ccc(O)cc1)C(=O)N[C@H](Cc1ccccc1)C(=O)N[C@H](CCCNC(=N)N)C(=O)N[C@H](CCCNC(=N)N)C(=O)O)[C@H](C)CC [rrrrrrrrrrpirihyfrr] (H-[dR][dR][dR][dR][dR][dR][dR][dR][dR][dR][dP][dI][dR][dI][dH][dY][dF][dR][dR]-OH; N-terminus and C-terminus assumed) | – | – | 0.07 | > 24 h | 5 µM | 4 µM | –
5 | CC[C@@H](C)[C@@H](NC(=O)[C@H]1CCCN1C(=O)[C@@H](CCCNC(=N)N)NC(=O)[C@@H](CCCNC(=N)N)NC(=O)[C@@H](CCCNC(=N)N)NC(=O)[C@@H](CCCNC(=N)N)NC(=O)[C@@H](CCCNC(=N)N)NC(=O)[C@@H](CCCNC(=N)N)NC(=O)[C@@H](CCCNC(=N)N)NC(=O)[C@@H](CCCNC(=N)N)NC(=O)[C@@H](CCCNC(=N)N)NC(=O)[C@H](N)CCCNC(=N)N)C(=O)N[C@H](Cc1ccc(O)cc1)C(=O)N[C@H](CCC(N)=O)C(=O)N[C@H](Cc1c[nH]c2ccccc12)C(=O)N[C@H](Cc1ccc(O)cc1)C(=O)N[C@H](CCCNC(=N)N)C(=O)N[C@H](Cc1c[nH]c2ccccc12)C(=O)N[C@H](CCC(N)=O)C(=O)O [rrrrrrrrrrpiyqwyrwq] (H-[dR][dR][dR][dR][dR][dR][dR][dR][dR][dR][dP][dI][dY][dQ][dW][dY][dR][dW][dQ]-OH) | – | – | 0.01 | > 24 h | 5 µM | 6 µM | –
6 | LLIKYHR [LLIKYHR] | delay the aggregation onset and lower the total amount of aggregates present | delay the aggregation onset and lower the total amount of aggregates present | – | – | – | – | –
7 | PRRRRRRRRRRPIIRIRHYRP | – | – | 0.11 | – | 12 µM | 10 µM | 1.93 h
8 | PRRRRRRRRRRPILRIRYWKP | – | – | 0.02 | – | 5 µM | 5 µM | 3.33 h
9 | PRRRRRRRRRRPITRIRFYRP | – | – | 0.11 | – | 9 µM | 8 µM | 1.72 h
10 | RRRRRRRRRRPIIRIRHYP [RRRRRRRRRRPIIRIRHYP] | – | – | 0.17 | – | 7 µM | 6 µM | 4.92 h
11 | RRRRRRRRRRPIIRIRHYR [RRRRRRRRRRPIIRIRHYR] | – | – | 0.16 | – | 6 µM | 6 µM | 0.5 h
12 | RRRRRRRRRRPIIRIRHYRP | – | – | 0.19 | – | 7 µM | 7 µM | 2.07 h
13 | RRRRRRRRRRPILTRITLE [RRRRRRRRRRPILTRITLE, reference compound] | – | – | 0.34 | – | 9 µM | 8 µM | 5.65 h
